In patent publication US20250205344A1, “2,4-DIOXOTETRAHYDROPYRIMIDINYL DERATIVES AS DEGRONS IN PROTACS” (GLAXOSMITHKLINE INTELLECTUAL PROPERTY DEVELOPMENT LIMITED, priority 2022, published 2025):
Structures can show the parent of a compound that is named as a salt.

target: T1, Androgen Receptor (Homo sapiens, UniProt P10275, T878A); assay: Androgen Receptor Degradation Assay (Nano-Glo HiBiT); format: cell-based; settings: LNCaP, 18 h, HiBiT-tagged AR in human LnCaP cells, read-out: mean asymptote max
T1 construct: the AR gene was modified, using CRISPR/Cas9 editing, so the expressed AR protein included an 11 amino acid HiBiT tag; endogenous in cells; host or cells: clonal LnCaP-derived line, AR gene edited by CRISPR/Cas9
Method in brief: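 LnCaP cells with CRISPR-knocked-in N-terminal HiBiT-tagged AR (10,000/well) treated 18 h at 37 °C with PROTACs over 11 threefold concentrations; lytic HiBiT luminescence normalised to DMSO (0%) and cell-free (100%) controls. Relative DC50 = 4-parameter fit inflection; absolute DC50 = 50% degradation interpolation; Dmax = maximum observed degradation.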

T1 sequence (P10275 whole entry T878A): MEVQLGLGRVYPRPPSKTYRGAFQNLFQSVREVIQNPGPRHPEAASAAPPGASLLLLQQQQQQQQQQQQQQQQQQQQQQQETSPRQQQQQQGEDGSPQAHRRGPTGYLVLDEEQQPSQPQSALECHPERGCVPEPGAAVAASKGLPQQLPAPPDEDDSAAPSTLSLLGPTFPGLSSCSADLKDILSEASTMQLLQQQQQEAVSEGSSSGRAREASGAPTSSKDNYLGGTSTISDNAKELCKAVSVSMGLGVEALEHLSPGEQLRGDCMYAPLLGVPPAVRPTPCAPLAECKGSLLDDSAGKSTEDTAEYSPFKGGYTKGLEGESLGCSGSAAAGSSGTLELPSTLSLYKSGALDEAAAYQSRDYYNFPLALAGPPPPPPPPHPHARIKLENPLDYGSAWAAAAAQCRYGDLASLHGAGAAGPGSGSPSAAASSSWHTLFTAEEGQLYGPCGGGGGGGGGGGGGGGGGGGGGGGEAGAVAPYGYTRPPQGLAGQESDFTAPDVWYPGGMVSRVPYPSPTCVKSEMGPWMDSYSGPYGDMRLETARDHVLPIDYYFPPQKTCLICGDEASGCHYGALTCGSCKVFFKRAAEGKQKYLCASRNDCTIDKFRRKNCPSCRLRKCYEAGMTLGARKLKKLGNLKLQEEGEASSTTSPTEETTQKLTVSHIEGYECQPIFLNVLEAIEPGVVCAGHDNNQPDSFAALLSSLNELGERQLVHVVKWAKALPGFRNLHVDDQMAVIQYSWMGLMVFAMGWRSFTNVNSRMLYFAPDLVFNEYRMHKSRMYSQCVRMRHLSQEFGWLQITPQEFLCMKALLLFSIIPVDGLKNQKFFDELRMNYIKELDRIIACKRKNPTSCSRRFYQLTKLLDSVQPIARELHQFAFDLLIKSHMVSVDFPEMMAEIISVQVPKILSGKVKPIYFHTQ
T1 sequence (Q96SW2 whole entry partner): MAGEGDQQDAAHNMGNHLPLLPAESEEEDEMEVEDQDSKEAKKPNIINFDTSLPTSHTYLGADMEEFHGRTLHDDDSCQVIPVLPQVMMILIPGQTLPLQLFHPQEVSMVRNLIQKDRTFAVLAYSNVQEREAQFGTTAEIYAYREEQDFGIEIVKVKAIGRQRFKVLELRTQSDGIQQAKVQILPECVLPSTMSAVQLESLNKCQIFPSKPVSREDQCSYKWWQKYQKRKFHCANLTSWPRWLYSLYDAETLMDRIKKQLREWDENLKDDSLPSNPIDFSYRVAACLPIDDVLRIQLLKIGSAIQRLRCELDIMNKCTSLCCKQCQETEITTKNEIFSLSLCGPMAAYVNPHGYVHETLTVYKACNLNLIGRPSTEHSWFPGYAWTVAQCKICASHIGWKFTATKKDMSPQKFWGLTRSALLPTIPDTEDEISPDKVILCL
T1 sequence (Q16531 whole entry partner): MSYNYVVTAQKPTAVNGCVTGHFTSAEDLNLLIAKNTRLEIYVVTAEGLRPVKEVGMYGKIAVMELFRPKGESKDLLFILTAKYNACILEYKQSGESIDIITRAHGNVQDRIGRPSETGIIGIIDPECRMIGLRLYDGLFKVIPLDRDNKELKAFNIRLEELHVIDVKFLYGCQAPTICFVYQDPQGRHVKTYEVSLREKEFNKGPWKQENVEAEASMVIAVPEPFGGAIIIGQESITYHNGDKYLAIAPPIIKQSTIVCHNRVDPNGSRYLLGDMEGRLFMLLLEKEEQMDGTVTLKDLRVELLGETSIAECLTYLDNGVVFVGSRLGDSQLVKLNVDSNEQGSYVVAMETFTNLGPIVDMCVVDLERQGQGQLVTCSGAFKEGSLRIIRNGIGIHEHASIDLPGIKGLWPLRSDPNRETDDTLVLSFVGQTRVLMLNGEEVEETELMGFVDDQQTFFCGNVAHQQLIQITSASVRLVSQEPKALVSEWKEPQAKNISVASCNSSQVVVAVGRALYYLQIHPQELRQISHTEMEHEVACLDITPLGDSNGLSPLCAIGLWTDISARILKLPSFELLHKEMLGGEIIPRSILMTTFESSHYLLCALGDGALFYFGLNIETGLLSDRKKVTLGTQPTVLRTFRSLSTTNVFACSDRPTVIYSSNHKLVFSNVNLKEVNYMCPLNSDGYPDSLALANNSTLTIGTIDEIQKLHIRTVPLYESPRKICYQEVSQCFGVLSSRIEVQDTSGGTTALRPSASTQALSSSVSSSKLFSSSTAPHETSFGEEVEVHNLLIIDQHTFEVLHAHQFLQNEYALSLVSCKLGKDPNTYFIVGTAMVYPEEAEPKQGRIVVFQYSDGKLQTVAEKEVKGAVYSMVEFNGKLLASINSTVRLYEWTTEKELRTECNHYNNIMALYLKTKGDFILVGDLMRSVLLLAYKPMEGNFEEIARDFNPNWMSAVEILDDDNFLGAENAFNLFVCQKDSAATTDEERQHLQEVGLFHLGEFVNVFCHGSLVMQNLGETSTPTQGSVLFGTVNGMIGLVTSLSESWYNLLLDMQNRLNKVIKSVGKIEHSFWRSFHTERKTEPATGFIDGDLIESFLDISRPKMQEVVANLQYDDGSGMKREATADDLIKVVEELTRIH

SMILES	Dmax [%]
CC1(C)[C@H](NC(=O)c2ncc(N3CCC(CN4CCC(n5ccc6c(N7CCC(=O)NC7=O)ccnc65)CC4)CC3)cn2)C(C)(C)[C@H]1Oc1cnc(C#N)c(Cl)c1 [EAR269, N-((1r,3r)-3-((5-Chloro-6-cyanopyridin-3-yl)oxy)-2,2,4,4-tetramethylcyclobutyl)-5-(4-((4-(4-(2,4-dioxotetrahydropyrimidin-1(2H)-yl)-1H-pyrrolo[2,3-b]pyridin-1-yl)piperidin-1-yl)methyl)piperidin-1-yl)pyrimidine-2-carboxamide]	≥ 50
C[C@@H]1CN(c2ccc(C#N)c(Cl)c2)[C@@H](C)CN1C(=O)c1ccc(N2CCC(CN3CCC(n4ncc5c(N6CCC(=O)NC6=O)cncc54)CC3)CC2)nn1 [EAR146, 2-Chloro-4-((2S,5R)-4-(6-(4-((4-(4-(2,4-dioxotetrahydropyrimidin-1(2H)-yl)-1H-pyrazolo[3,4-c]pyridin-1-yl)piperidin-1-yl)methyl)piperidin-1-yl)pyridazine-3-carbonyl)-2,5-dimethylpiperazin-1-yl)benzonitrile]	≥ 50
CC1CC(CN2CCC(n3ncc4c(N5CCC(=O)NC5=O)cccc43)CC2)CCN1c1ccc(C(=O)N[C@H]2CC[C@H](Oc3ccc(C#N)c(Cl)c3)CC2)nn1 (some centres unmarked) [EAR229]	≥ 50
N#Cc1ccc(O[C@H]2CC[C@H](NC(=O)c3ccc(OCCCCN4CCC(n5ccc6c(N7CCC(=O)NC7=O)cccc65)CC4)cn3)CC2)cc1Cl [EAR66, N-((1r,4r)-4-(3-chloro-4-cyanophenoxy)cyclohexyl)-5-(4-(4-(4-(2,4-dioxotetrahydropyrimidin-1(2H)-yl)-1H-indol-1-yl)piperidin-1-yl)butoxy)picolinamide]	≥ 50
CC(C)n1ccc2c(N3CCC(=O)NC3=O)cc(C(=O)N3CCN(CCCCCCc4ccc(C(=O)N[C@H]5C(C)(C)[C@H](Oc6ccc(C#N)c(C(F)(F)F)c6)C5(C)C)cc4)CC3)cc21 [EAR87, N-((1r,3r)-3-(4-Cyano-3-(trifluoromethyl)phenoxy)-2,2,4,4-tetramethylcyclobutyl)-4-(6-(4-(4-(2,4-dioxotetrahydropyrimidin-1(2H)-yl)-1-isopropyl-1H-indole-6-carbonyl)piperazin-1-yl)hexyl)benzamide]	≥ 50
N#Cc1ccc(O[C@H]2CC[C@H](NC(=O)c3ccc(N4C[C@]5(CN6CCC(n7ncc8c(N9CCC(=O)NC9=O)cccc87)CC6)C[C@]5(C(F)(F)F)C4)nn3)CC2)cc1Cl [EAR244, N-((1r,4R)-4-(3-chloro-4-cyanophenoxy)cyclohexyl)-6-((1R,5R)-1-((4-(4-(2,4-dioxotetrahydropyrimidin-1(2H)-yl)-1H-indazol-1-yl)piperidin-1-yl)methyl)-5-(trifluoromethyl)-3-azabicyclo[3.1.0]hexan-3-yl)pyridazine-3-carboxamide]	≥ 50
CC1(C)C(=O)N(c2ccc(C#N)c(C(F)(F)F)c2)C(=S)N1c1ccc(N2CCC(CN3CCC(n4ncc5c(N6CCC(=O)NC6=O)cccc54)CC3)CC2)cc1 [EAR95, 4-(3-(4-(4-((4-(4-(2,4-Dioxotetrahydropyrimidin-1(2H)-yl)-1H-indazol-1-yl)piperidin-1-yl)methyl)piperidin-1-yl)phenyl)-4,4-dimethyl-5-oxo-2-thioxoimidazolidin-1-yl)-2-(trifluoromethyl)benzonitrile]	≥ 50
CC(C)n1ccc2c(N3CCC(=O)NC3=O)cc(C(=O)N3CCCC34CCN(CCCCCCc3ccc(C(=O)N[C@H]5CC[C@H](Oc6ccc(C#N)c(Cl)c6)CC5)cc3)CC4)cc21 [EAR86, N-((1r,4r)-4-(3-Chloro-4-cyanophenoxy)cyclohexyl)-4-(6-(1-(4-(2,4-dioxotetrahydropyrimidin-1(2H)-yl)-1-isopropyl-1H-indole-6-carbonyl)-1,8-diazaspiro[4.5]decan-8-yl)hexyl)benzamide]	≥ 50
C[C@@H]1CN(c2ccc(C#N)c(Cl)c2)[C@@H](C)CN1C(=O)c1ccc(OCCCCCN2CCC(n3ccc4c(N5CCC(=O)NC5=O)cncc43)CC2)nc1 [EAR165, 2-Chloro-4-((2S,5R)-4-(6-((5-(4-(4-(2,4-dioxotetrahydropyrimidin-1(2H)-yl)-1H-pyrrolo[2,3-c]pyridin-1-yl)piperidin-1-yl)pentyl)oxy)nicotinoyl)-2,5-dimethylpiperazin-1-yl)benzonitrile]	≥ 50
CC(C)n1ccc2c(N3CCC(=O)NC3=O)cc(C(=O)N3CCN(c4ccc(C(=O)N[C@H]5CC[C@H](Oc6ccc(C#N)c(Cl)c6)CC5)nn4)CC3)cc21 [EAR77, N-((1r,4r)-4-(3-Chloro-4-cyanophenoxy)cyclohexyl)-6-(4-(4-(2,4-dioxotetrahydropyrimidin-1(2H)-yl)-1-isopropyl-1H-indole-6-carbonyl)piperazin-1-yl)pyridazine-3-carboxamide]	≥ 50

The next lines start with the values.

Dmax [%]	SMILES
≥ 50	N#Cc1ccc(O[C@H]2CC[C@H](NC(=O)c3ccc(N4CCC(N5CCC(Cn6ccc7c(N8CCC(=O)NC8=O)cccc76)CC5)CC4)nn3)CC2)cc1Cl [EAR27, N-((1r,4r)-4-(3-Chloro-4-cyanophenoxy)cyclohexyl)-6-(4-((4-(2,4-dioxotetrahydropyrimidin-1(2H)-yl)-1H-indol-1-yl)methyl)-[1,4′-bipiperidin]-1′-yl)pyridazine-3-carboxamide hydrochloride]
≥ 50	N#Cc1ccc(O[C@H]2CC[C@H](NC(=O)c3ccc(O[C@H]4CCN(C(=O)CN5CCC(n6ccc7c(N8CCC(=O)NC8=O)cccc76)CC5)C4)nn3)CC2)cc1Cl [EAR188, N-((1r,4S)-4-(3-Chloro-4-cyanophenoxy)cyclohexyl)-6-(((S)-1-(2-(4-(4-(2,4-dioxotetrahydropyrimidin-1(2H)-yl)-1H-indol-1-yl)piperidin-1-yl)acetyl)pyrrolidin-3-yl)oxy)pyridazine-3-carboxamide]
≥ 50	N#Cc1ccc(O[C@H]2CC[C@H](NC(=O)c3ccc(N4CCC(CN5CCC(c6ncc7c(N8CCC(=O)NC8=O)cccn67)CC5)CC4)nn3)CC2)cc1Cl [EAR177, N-((1r,4r)-4-(3-Chloro-4-cyanophenoxy)cyclohexyl)-6-(4-((4-(8-(2,4-dioxotetrahydropyrimidin-1(2H)-yl)imidazo[1,5-a]pyridin-3-yl)piperidin-1-yl)methyl)piperidin-1-yl)pyridazine-3-carboxamide]
≥ 50	N#Cc1ccc(O[C@H]2CC[C@H](NC(=O)c3ccc(N4CCN(C[C@H]5CC[C@H](n6ccc7c(N8CCC(=O)NC8=O)cccc76)CC5)CC4)nn3)CC2)cc1Cl [AR215, N-((1r,4r)-4-(3-Chloro-4-cyanophenoxy)cyclohexyl)-6-(4-(((1r,4r)-4-(4-(2,4-dioxotetrahydropyrimidin-1(2H)-yl)-1H-indol-1-yl)cyclohexyl)methyl)piperazin-1-yl)pyridazine-3-carboxamide hydrochloride]
≥ 50	N#Cc1ccc(O[C@H]2CC[C@H](NC(=O)c3ccc(C4CCN(CC(=O)N5CCC(n6ncc7c(N8CCC(=O)NC8=O)cccc76)CC5)CC4)nn3)CC2)cc1Cl [EAR167, N-((1r,4r)-4-(3-Chloro-4-cyanophenoxy)cyclohexyl)-6-(1-(2-(4-(4-(2,4-dioxotetrahydropyrimidin-1(2H)-yl)-1H-indazol-1-yl)piperidin-1-yl)-2-oxoethyl)piperidin-4-yl)pyridazine-3-carboxamide]
≥ 50	N#Cc1ccc(O[C@H]2CC[C@H](NC(=O)c3ccc(N4CCC(CN5CCC(n6ccc7c(N8CCC(=O)NC8=O)ccnc76)CC5)CC4)nn3)CC2)cc1Cl [EAR149, N-((1r,4r)-4-(3-Chloro-4-cyanophenoxy)cyclohexyl)-6-(4-((4-(4-(2,4-dioxotetrahydropyrimidin-1(2H)-yl)-1H-pyrrolo[2,3-b]pyridin-1-yl)piperidin-1-yl)methyl)piperidin-1-yl)pyridazine-3-carboxamide]
≥ 50	N#Cc1ccc(O[C@H]2CC[C@H](NC(=O)c3cnc(N4CCC(C(=O)N5CCC(n6ccc7c(N8CCC(=O)NC8=O)cccc76)CC5)CC4)nc3)CC2)cc1Cl [EAR69, N-((1r,4r)-4-(3-Chloro-4-cyanophenoxy)cyclohexyl)-2-(4-(4-(4-(2,4-dioxotetrahydropyrimidin-1(2H)-yl)-1H-indol-1-yl)piperidine-1-carbonyl)piperidin-1-yl)pyrimidine-5-carboxamide]
≥ 50	N#Cc1ccc(O[C@H]2CC[C@H](NC(=O)c3cccc(C4CCN(C(=O)CN5CCC(n6ccc7c(N8CCC(=O)NC8=O)cccc76)CC5)CC4)c3)CC2)cc1Cl [AR3, N-((1r,4r)-4-(3-Chloro-4-cyanophenoxy)cyclohexyl)-3-(1-(2-(4-(4-(2,4-dioxotetrahydropyrimidin-1(2H)-yl)-1H-indol-1-yl)piperidin-1-yl)acetyl)piperidin-4-yl)benzamide]
≥ 50	C[C@H]1CN(c2ccc(C(=O)N[C@H]3CC[C@H](Oc4ccc(C#N)c(Cl)c4)CC3)nn2)CC[C@H]1CN1CCC(n2ncc3c(N4CCC(=O)NC4=O)cccc32)CC1 [EAR227, N-((1r,4R)-4-(3-chloro-4-cyanophenoxy)cyclohexyl)-6-((3R,4R)-4-((4-(4-(2,4-dioxotetrahydropyrimidin-1(2H)-yl)-1H-indazol-1-yl)piperidin-1-yl)methyl)-3-methylpiperidin-1-yl)pyridazine-3-carboxamide]
≥ 50	N#Cc1ccc(O[C@H]2CC[C@H](NC(=O)c3cnc(N4CCC(CN5CCC(n6ncc7c(N8CCC(=O)NC8=O)c(F)ccc76)CC5)CC4)cn3)CC2)cc1Cl [EAR190, N-((1r,4r)-4-(3-Chloro-4-cyanophenoxy)cyclohexyl)-5-(4-((4-(4-(2,4-dioxotetrahydropyrimidin-1(2H)-yl)-5-fluoro-1H-indazol-1-yl)piperidin-1-yl)methyl)piperidin-1-yl)pyrazine-2-carboxamide hydrochloride]
